Measurements taken from ChEMBL document CHEMBL5226347, “Discovery of Chromane-6-Sulfonamide Derivative as a Potent, Selective, and Orally Available Novel Retinoic Acid Receptor-Related Orphan Receptor γt Inverse Agonist” (J Med Chem, 2021).
Converted amounts (≈) assume the structure as drawn.

Key:
[1] = Lipophilicity, log D of the compound at pH 7.4; type: physicochemical; settings: buffer
[2] = Metabolic stability in human liver microsomes assessed as half life incubated for 5 to 30 mins by HPLC-MS/MS analysis; type: ADME, Microsome; settings: time 5-30 min; for t1/2: microsomes
[3] = Metabolic stability in human liver assessed as intrinsic clearance incubated for 5 to 30 mins by HPLC-MS/MS analysis; type: ADME, tissue-based; settings: liver (preparation not stated), time 5-30 min, read-out: CLH
[4] = Metabolic stability in human liver microsomes assessed as parent compound remaining measured at 60 mins by HPLC-MS/MS analysis; type: ADME, Microsome; settings: 1 h
[5] = molecular target: T1, Nuclear receptor ROR-gamma (Homo sapiens, UniProt P51449); experiment: Displacement of BODIPY from APC-labelled human RORgammat LBD incubated for 15 mins by LANCE detection analysis
T1 sequence (P51449 whole entry): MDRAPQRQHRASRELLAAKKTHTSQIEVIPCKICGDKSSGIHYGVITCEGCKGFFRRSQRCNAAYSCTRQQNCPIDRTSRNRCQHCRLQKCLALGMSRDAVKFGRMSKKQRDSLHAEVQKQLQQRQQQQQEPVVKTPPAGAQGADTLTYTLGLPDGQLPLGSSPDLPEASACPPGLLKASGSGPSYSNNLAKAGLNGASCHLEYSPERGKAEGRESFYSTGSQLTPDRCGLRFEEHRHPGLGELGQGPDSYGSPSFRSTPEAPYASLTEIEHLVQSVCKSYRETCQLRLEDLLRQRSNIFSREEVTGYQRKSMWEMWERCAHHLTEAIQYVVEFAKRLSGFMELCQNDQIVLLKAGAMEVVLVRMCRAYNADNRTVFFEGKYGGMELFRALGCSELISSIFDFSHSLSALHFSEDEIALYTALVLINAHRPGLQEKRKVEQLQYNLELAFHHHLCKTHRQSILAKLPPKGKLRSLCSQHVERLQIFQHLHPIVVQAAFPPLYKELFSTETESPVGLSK

[6] = molecular target: T1, Nuclear receptor ROR-gamma; experiment: Inhibition of RORgammat in human Jurkat cells assessed as inhibition of RORgammat transcriptional activity incubated for 10 mins by luciferase reporter gene assay; type: cell-based
[7] = Solubility of compound in aqueous buffer at pH 7.4; type: physicochemical
Mus musculus [8] = experiment: Antiinflammatory activity against imiquimod-induced Balb/c mouse skin inflammation model assessed as reduction in severity index score at 20 mg/kg, po BID for 13 days; type: functional; parameters: scale not given: the % may be the effect or the level left; settings: time 13 day
Mus musculus [9] = experiment: Antiinflammatory activity against imiquimod-induced Balb/c mouse skin inflammation model assessed as inhibition of IL-17A level at 20 mg/kg, po measured for 13 days; type: functional; parameters: scale not given: the % may be the effect or the level left; settings: time 13 day
Mus musculus [10] = experiment: Antiinflammatory activity against imiquimod-induced Balb/c mouse skin inflammation model assessed as inhibition of IL-6 level at 20 mg/kg, po measured for 13 days; type: functional; parameters: scale not given: the % may be the effect or the level left; settings: time 13 day

logD [1] | Compound | also measured
4.95 | CCc1ccc(N(CC(C)C)S(=O)(=O)c2ccc(OCC3CCOCC3)c3c2CCCC3O)cc1 (centres undefined) | 
3.77 | Cc1ccc(N(C2CCC2)S(=O)(=O)c2ccc3c(c2)C(O)CC(C2CCOCC2)O3)c(C)c1 (centres undefined) | 
4.97 | CCc1ccc(N(CC(C)C)S(=O)(=O)c2ccc3nc(C4CCOCC4)cc(O)c3c2)cc1 | 
3.68 | CCc1ccc2c(c1)CC(C)CN2S(=O)(=O)c1ccc2c(c1)C(O)CC(C1CCOCC1)O2 (centres undefined) | 
2.59 | CCc1ccc(NS(=O)(=O)c2ccc3c(c2)C(O)CC(C2CCOCC2)O3)cc1 (centres undefined) | 
3.41 | O=S(=O)(c1ccc2c(c1)C(O)CC(C1CCOCC1)O2)N1CCCC1c1ccccc1C(F)(F)F (centres undefined) | t1/2 [2]: 7.6 min; CLint scaled [3]: 172 mL/min/kg; Stability [4]: 5.2%
5.38 | CCc1ccc(N(CC(C)C)S(=O)(=O)c2ccc3c(c2)CCC(C2CCOCC2)O3)cc1 (centres undefined) | 
3.39 | CC(C)CN(c1ccccc1F)S(=O)(=O)c1ccc2c(c1)C(O)CC(C1CCOCC1)O2 (centres undefined) | 
2.41 | O=S(=O)(Nc1ccccc1C(F)(F)F)c1ccc2c(c1)C(O)CC(C1CCOCC1)O2 (centres undefined) | IC50 [5]: > 10 µM; IC50 [6]: > 10 µM
4.37 | Cc1cc(C(O)(C(F)(F)F)C(F)(F)F)ccc1N(CC(C)C)S(=O)(=O)c1ccc2c(c1)C(O)CC(C1CCOCC1)O2 (centres undefined) | 
5.71 | CCc1ccc(N(CC(C)C)S(=O)(=O)c2ccc3c(c2)C(C)CC(C2CCOCC2)O3)cc1 (centres undefined) | 
1.04 | CCc1ccc(N(CC(C)C)S(=O)(=O)c2ccc3c(c2)C(O)CC(C2CCNCC2)O3)cc1 (centres undefined) | 
3.39 | CC(C)CN(c1ccc(F)cc1)S(=O)(=O)c1ccc2c(c1)C(O)CC(C1CCOCC1)O2 (centres undefined) | 
5.04 | CCc1ccc(N(CC(C)C)S(=O)(=O)c2ccc3c(c2)C(O)CC(C2CCN(C(=O)C4CCCC4)CC2)O3)cc1 (centres undefined) | 
4.12 | CCc1ccc(N(CC(C)C)S(=O)(=O)c2ccc3c(c2)C(O)C[C@H](C2CCOCC2)O3)cc1 (some centres undefined) | 
4.19 | Cc1ccc(N(CC(C)C)S(=O)(=O)c2ccc3c(c2)C(O)CC(C2CCOCC2)O3)c(C)c1 (centres undefined) | 
4.19 | CCc1ccc(N(CC(C)C)S(=O)(=O)c2ccc3c(c2)C(C)(O)CC(C2CCOCC2)O3)cc1 (centres undefined) | 
3.88 | CCc1ccc(N(CC(F)(F)F)S(=O)(=O)c2ccc3c(c2)C(O)CC(C2CCOCC2)O3)cc1 (centres undefined) | 
3.08 | CCc1ccc(N(CC(C)C)S(=O)(=O)c2ccc3c(c2)C(N)CC(C2CCOCC2)O3)cc1 (centres undefined) | 
2.63 | O=S(=O)(c1ccc2c(c1)C(O)CC(C1CCOCC1)O2)N1CCC(c2ccccc2)CC1 (centres undefined) | IC50 [5]: > 10 µM; IC50 [6]: > 10 µM
2.67 | CCc1ccc(N(CC(C)C)S(=O)(=O)c2ccc3c(c2)C(O)CC(C2CCN(C)CC2)O3)cc1 (centres undefined) | 
4.1 | CCc1ccc(N(CC(C)C)S(=O)(=O)c2ccc(OCC3CCOCC3)c(CO)c2)cc1 [GSK2981278] | t1/2 [2]: 0.8 min; CLint scaled [3]: 1610 mL/min/kg; Stability [4]: 0.2%; solubility [7]: 2.12 µg/mL (≈ 4.59 µM); Activity (Mus musculus [8]): 61.5%; Activity (Mus musculus [9]): 82.2%; Activity (Mus musculus [10]): 59.4%
4.55 | CCc1ccc(N(CC(C)C)S(=O)(=O)c2ccc(OCC3CCOCC3)c3c2CCC3O)cc1 (centres undefined) | 

logD [1] | Compound | also measured
4.23 | CC(C)CN(Cc1ccccc1C(F)(F)F)S(=O)(=O)c1ccc2c(c1)C(O)CC(C1CCOCC1)O2 (centres undefined) | 
5.52 | CCc1ccc(N(CC(C)C)S(=O)(=O)c2ccc3c(c2)C=CC(C2CCOCC2)O3)cc1 (centres undefined) | 
3.25 | CCc1ccc(N(CC(C)C)S(=O)(=O)c2ccc(OCC3CCOCC3)c(CN)c2)cc1 | 
3.07 | CC(C)CN(c1ccc(C#N)cc1)S(=O)(=O)c1ccc2c(c1)C(O)CC(C1CCOCC1)O2 (centres undefined) | t1/2 [2]: 0.8 min; CLint scaled [3]: 1520 mL/min/kg; Stability [4]: 0.3%
4.12 | CCc1ccc(N(CC(C)C)S(=O)(=O)c2ccc3c(c2)C(O)C[C@@H](C2CCOCC2)O3)cc1 (some centres undefined) | 
4.14 | CC(C)CN(c1ccccc1C(F)(F)F)S(=O)(=O)c1ccc2c(c1)C(O)CC(C1CCOCC1)O2 (centres undefined) | 
4.01 | CCc1ccc(N(CC2CCC2)S(=O)(=O)c2ccc3c(c2)C(O)CC(C2CCOCC2)O3)cc1 (centres undefined) | 
3.94 | CC(C)CN(C1CCc2ccc(F)cc21)S(=O)(=O)c1ccc2c(c1)C(O)CC(C1CCOCC1)O2 (centres undefined) | 
2.63 | CCc1ccc(N(C2COC2)S(=O)(=O)c2ccc3c(c2)C(O)CC(C2CCOCC2)O3)cc1 (centres undefined) | 
4.96 | CCc1ccc(N(CC(C)C)S(=O)(=O)c2ccc3c(c2)CCC3OC2CCOCC2)cc1 (centres undefined) | 
4.44 | CCc1ccc(N(CC(C)C)S(=O)(=O)c2ccc3c(c2)C(O)CC(CC2CCOCC2)O3)cc1 (centres undefined) | 
1.42 | CCS(=O)(=O)c1ccc(CN(CC(C)C)S(=O)(=O)c2ccc3c(c2)C(O)CC(C2CCOCC2)O3)nc1 (centres undefined) | IC50 [5]: > 10 µM; IC50 [6]: > 10 µM
3.51 | CC(C)CN(c1ccc(N(C)C)cc1)S(=O)(=O)c1ccc2c(c1)C(O)CC(C1CCOCC1)O2 (centres undefined) | 
5.04 | CCc1ccc(N(CC(C)C)S(=O)(=O)c2ccc3c(c2)C(O)CC(C(C)C2CCOCC2)O3)cc1 (centres undefined) | 
6.28 | CCc1ccc(N(CC(C)C)S(=O)(=O)c2ccc3c(c2)C(OC2CCCCC2)CC(C2CCOCC2)O3)cc1 (centres undefined) | 
3.92 | CC(C)CN(c1cc2ccccc2s1)S(=O)(=O)c1ccc2c(c1)C(O)CC(C1CCOCC1)O2 (centres undefined) | t1/2 [2]: 25.2 min; CLint scaled [3]: 53.7 mL/min/kg; Stability [4]: 28.5%
4.68 | CCc1ccc(N(Cc2ccccc2)S(=O)(=O)c2ccc3c(c2)C(O)CC(C2CCOCC2)O3)cc1 (centres undefined) | 
3.53 | CC(C)CN(c1ccc(F)cc1F)S(=O)(=O)c1ccc2c(c1)C(O)CC(C1CCOCC1)O2 (centres undefined) | 
4.12 | CCc1ccc(N(CC(C)C)S(=O)(=O)c2ccc3c(c2)C(O)CC(C2CCOCC2)O3)cc1 (centres undefined) | half-life ([2]; liver microsomes): 222 min; CLint scaled [3]: 330 mL/min/kg
3.39 | CC(C)CN(c1cccc(F)c1)S(=O)(=O)c1ccc2c(c1)C(O)CC(C1CCOCC1)O2 (centres undefined) | 
4.69 | CCc1ccc(N(CC(C)C)S(=O)(=O)c2ccc3c(c2)C(OC)CC(C2CCOCC2)O3)cc1 (centres undefined) | 
3.22 | CCc1ccc(N(CC(C)C)S(=O)(=O)c2ccc3c(c2)C(O)CC(C2CCN(S(C)(=O)=O)CC2)O3)cc1 (centres undefined) | 
